US7223865B2, “Chromogenic compounds, and use thereof as enzyme substrates” (Biomerieux, priority 2003, dated 2007)

How the values were obtained:
[1] = substrate dissolution in autoclaved Columbia agar medium; assay type: physicochemical; details: 30 milligrams with 4 grams of Columbia agar in 0.1 liter of distilled water, autoclaved at 116° C. for 20 minutes
Experimental: (§1) A gelled medium comprising L-seryl-9-(4-amino-phenyl)acridine (hereinafter referred to as L-Ser-4-APA) is prepared as follows: 30 milligrams of L-Ser-4-APA are added to 4 grams of Columbia agar, that are added to 0.1 liter of distilled water and then autoclaved. This reaction medium is autoclaved at 116° C. for 20 minutes.

[2] = tested on: Klebsiella pneumoniae (012); assay: L-serine-aminopeptidase activity on gelled medium, Example 7; assay type: cell-based; details: 0.3 g/l, 18 to 24 hours
Experimental: as §1
(§2) Microorganisms derived from the applicant's collection were seeded onto this medium using a suspension of 0.5 McFarland. The dishes were incubated at 37° C. for 24 hours. Samples of 10 μl of each suspension were cultured so as to produce colonies. The colonies formed were examined visually after incubation for 18 to 24 hours.
(§3) The color of these colonies was noted before and after the addition of a drop of acetic acid, hereinafter referred to as GAA (glacial acetic acid).

Escherichia coli (009) = assay: as above; assay type: cell-based; details: 0.3 g/l, 18 to 24 hours
Experimental: as §1, §2, §3

[3] = tested on: Yersinia enterocolitica (061); assay: as above; assay type: cell-based; details: 0.3 g/l, 18 to 24 hours
Experimental: as §1, §2, §3

[4] = tested on: Staphylococcus aureus (008); assay: as above; assay type: cell-based; details: 0.3 g/l, 18 to 24 hours
Experimental: as §1, §2, §3

[5] = tested on: Enterococcus faecalis (117); assay: as above; assay type: cell-based; details: 0.3 g/l, 18 to 24 hours
Experimental: as §1, §2, §3

Candida albicans (138) = assay: as above; assay type: cell-based; details: 0.3 g/l, 18 to 24 hours
Experimental: as §1, §2, §3

substrate in solution in the medium [1]: Most of the substrate is in solution
Color ([2]; after GAA): pale orange
Intensity ([2]; after GAA): 2
Color ([2]; before GAA): cream
Color ([5]; after GAA): cream
Color ([5]; before GAA): cream
Compound: N[C@@H](CO)C(=O)Nc1ccc(-c2c3ccccc3nc3ccccc23)cc1 [L-Ser-4-APA, L-Seryl-9-(4-aminophenyl)acridine]
Color (Escherichia coli (009); after GAA): pale orange
Intensity (Escherichia coli (009); after GAA): 2
Color (Escherichia coli (009); before GAA): cream
Color ([3]; after GAA): pale orange
Intensity ([3]; after GAA): 2
Color ([3]; before GAA): cream
Color ([4]; after GAA): cream
Color ([4]; before GAA): cream
Color (Candida albicans (138); after GAA): cream
Color (Candida albicans (138); before GAA): cream
